The source of these data is US20110281807A1, “PLANT DISEASE CONTROL AGENT COMPRISING D-TAGATOSE AS ACTIVE INGREDIENT, AND PLANT DISEASE CONTROL METHOD” (NATIONAL UNIVERSITY CORPORATION KAGAWA UNIVERSITY, priority 2008, published 2011).

Test [1] concerns Pseudoperonospora cubensis. The conditions noted are these: alone.
Description: Test plants (cucumber, variety: Sagami hanpaku) were seeded and grown until the one true leaf stage. D-tagatose alone was diluted to 5%, 1%, 0.5% and 0.1%, and the combination of D-tagatose and other saccharide were diluted to be 0.5% and 0.5% solution respectively with distilled water, and then 10 ml of the dilution was sprayed on the test plant. Three days after spraying of the solution, a sporangium suspension of Pseudoperonospora cubensis containing 1×10^3/ml were inoculated by spraying on test plants and then put them for 16 hours in an inoculation chamber (20° C. to 23° C.) to promote disease. Seven days after inoculation the disease severity of the test plants was observed and the effectiveness of test sample was judged. Tests were carried out using two plants for each test set and the disease severity of the test plants was judged in accordance with the following criteria. The preventive value was calculated from the degree of disease severity as in example 1.
Synergistic effect was determined by the Colby's equation below.
X is the observed effect, in percentage, of the first active ingredient and, and Y is the observed effect, in percentage, of the second active ingredient. E is the effect, in percentage, of the mixture expected from additive contribution of the individual components.
The next test relates to Pythium aphanidermatum. The test can be described thus: cucumber damping-off, pot test: soil drench of D-tagatose combined with fungicides. The settings on record: Pythium aphanidermatum, in Cucumis sativus, soil, 336 h, read-out: Preventive value.
In test [2] the test system is Pseudoperonospora cubensis. The conditions noted are these: Pseudoperonospora cubensis, in Cucumis sativus, 168 h, read-out: Preventive value.
Description: Test plants (cucumber, variety: Sagami hanpaku) were seeded and grown until the one true leaf stage. And then, a sporangium suspension of Pseudoperonospora cubensis containing 1×10^3/ml were spraying for inoculation on the back side of the leaves of test plants and then put for 16 hours in an inoculation chamber (20° C. to 23° C.) to promote disease. For a curative test, the inoculated plants as described above were used.
D-Tagatose was diluted to 5000 ppm and the fungicides were diluted to the concentrations listed in table 15, with distilled water, and 10 ml of the dilution was sprayed. Seven days after inoculation the disease severity of the test plants was observed and the effectiveness of test sample was judged.
Test [3] concerns Erysiphe graminis f.sp. hordei. The conditions noted are these: Blumeria graminis, in Hordeum vulgare, 168 h, read-out: Preventive value.
Description: Test plants (barley, variety: Akashinriki) were seeded and grown until the one leaf stage. D-tagatose and fungicide were diluted to 5000 ppm and the concentrations listed in table 21, respectively, with distilled water and 10 ml of the dilution was sprayed thoroughly on the plants. Three days after spraying, a condia suspension of Erysiphe graminis f.sp. hordei was inoculated by spraying on test plants. 7 days after inoculation the disease severity of the test plants was observed and the effectiveness of test sample was judged.
The subject of test [4] is Pseudoperonospora cubensis. The experiment in a line: cucumber downy mildew, pot test: curative effect.
Description: Test plants (cucumber, variety: Sagami hanpaku) were seeded and grown until the one true leaf stage. And then a sporangium suspension of Pseudoperonospora cubensis containing 1×10^3/ml were sprayed on the back side of the leaves of test plants for inoculation and then the plants were put for 16 hours in an inoculation chamber (20° C. to 23° C.) to promote disease. For a curative test, the inoculated plants as described above were used.
D-Tagatose was diluted to 5%, 1% and 0.5% with distilled water and then 10 ml of the dilution was sprayed on the test plant. Seven days after the spraying of D-tagatose the disease severity of the test plants was observed and the effectiveness of test sample was judged. Tests were carried out using two plants for each test set and the disease severity of the test plants was judged. The control value was calculated from the degree of disease severity as in Example 1.

Read-outs that look alike come from different tables or passages of the source.

Description for Pythium aphanidermatum: Five seeds of test plants (cucumber, variety: Sagami hanpaku) were sowed in a pot (5×5 cm), which contains infested soil with Pythium aphanidermatum (mycelium 100 g/1 L soil) and was covered with soil. D-Tagatose was diluted to 5000 ppm and the fungicides were diluted to the concentrations listed in table 18, with distilled water. The pot was drenched with 10 ml of the dilution. After 2 weeks, the disease severity of the test plants was observed and the effectiveness of test sample was judged. Tests were carried out in triplicate using 5 plants for each test set and the preventive value was calculated from the germination rate.

`O=C(CO)[C@@H](O)[C@@H](O)[C@H](O)CO` [D-Tagatose, D-tagatose]: the Preventive value in test [1] (1000 ppm) is 0.0; in test [1] (5000 ppm) it was 8.3; in test [1] (10000 ppm) it was 98.3; in test [1] (50000 ppm), 100.0. Moreover, the pest or weed control at 5000 ppm with Pythium aphanidermatum came out at 33%; in test [2], 33%; in test [3], 50%. Besides, the pest or weed control at 10000 ppm was 83% in the test with Pythium aphanidermatum, 73% in test [2] and 73% in test [3]. Further, the “Preventive value (control value)” value was 22.5 in test [4] (5000 ppm sprayed after inoculation (curative)); 91.7 in test [4] (10000 ppm sprayed after inoculation (curative)); 100.0 in test [4] (50000 ppm sprayed after inoculation (curative)); 100 in test [4] (50000 ppm sprayed after inoculation (curative), listed as D-tagatose). The effectiveness in words result in test [4] (curative test condition) was “effective enough”.
